System: acetyl-α-tubulin (HDAC6 main target) in U251-MG cells
Assay: Western blot of acetyl-α-tubulin and cleaved PARP in U251-MG
Assay type: cell-based, human
Settings: 10 nM, 48 h
Description: Immunoblots were performed following standard procedures. […] Detection was performed by chemiluminiscence using NOVEX ECL Chemi Substrate (ThermoFisher).

Question: Which α-tubulin hyperacetylation does the source give for `O=C(CCCCCCC(=O)Nc1ccccc1)NO` [SAHA, Suberoylanilide hydroxamic acid] here?
Answer: Its α-tubulin hyperacetylation is “did not”.
